# Laboratory results as given in US9265771B2, “Method for treating Lyme disease” (Zoetis Services LLC, priority 2012, dated 2016).
# Several values for one entry are separate records, joined by “and”; a condition that tells them apart may be missing. Equal values may be shown once.
# Tests used:
# Type in all cases: in vivo, beagle dogs
# [1] = test system: B. burgdorferi outer surface protein OspC; test: Study B: fluorescent-bead-based multiplex assay, antibodies against OspC; details: Day 281
# Method: (§1) Thirty-two (18 male and 14 female) beagle dogs were sero-negative for Borrelia burgdorferi, not vaccinated with any Borrelia spp vaccines, and acclimated at the study facility for seven days. The study was conducted under National Research Council guidelines (1996). […] Field-caught Ixodes from the northeast USA were placed on the dogs without containment chambers for 10 days; after ticks fed to repletion, dogs were treated with two applications of an approved topical acaricide with a 30-day interval between applications.
# Forty days post-challenge, and prior to antibiotic treatments, blood was collected from each dog as were two skin biopsy punch samples near tick attachment sites. Blood was collected approximately monthly post-treatment. Skin biopsies were taken near the tick attachment site on Days 48/49, 118, 146, 180, and 315. Serum antibodies to Borrelia were assayed using the IDEXX SNAP-4Dx and QC6 ELISA. In cooperation with Cornell University, serum samples were analyzed using fluorescent-bead-based multiplex assays detecting antibodies against B. burgdorferi outer surface proteins OspA, OspC, and OspF. Data were expressed as median fluorescent intensities (MFI), and shown to be specific and sensitive to provide interpretative guidelines regarding infection. The skin biopsies were collected for a polymerase chain reaction (PCR; FlaB) assay and cultured for spirochete detection. […]
# B. burgdorferi [2] = test: Study B: microscopic examination of joints and skin at necropsy; details: for Number of Joints with Changes as Described for Lyme disease: N = 8
# Method: as §1
# (§2) Forty days post-challenge, and prior to antibiotic treatments, blood was collected from each dog as were two skin biopsy punch samples near tick attachment sites. Blood was collected approximately monthly post-treatment. Skin biopsies were taken near the tick attachment site on Days 48/49, 118, 146, 180, and 315. Serum antibodies to Borrelia were assayed using the IDEXX SNAP-4Dx and QC6 ELISA. In cooperation with Cornell University, serum samples were analyzed using fluorescent-bead-based multiplex assays detecting antibodies against B. burgdorferi outer surface proteins OspA, OspC, and OspF. Data were expressed as median fluorescent intensities (MFI), and shown to be specific and sensitive to provide interpretative guidelines regarding infection. The skin biopsies were collected for a polymerase chain reaction (PCR; FlaB) assay and cultured for spirochete detection. At the end of the study, blood and skin biopsies were collected and synovial tissue from the joints were harvested at necropsy.
# (§3) On Day 75 and Day 89 Convenia was administered to the eight dogs in T04 (8 mg/kg bodyweight; subcutaneous injection). The other treated groups received their respective regimens daily and orally for 30 days from Days 75 to 104. […] Dogs in T01 served as infected, untreated, controls. Inter-treatment comparisons to evaluate antibiotic efficacy included clinical signs, serology, culture results and pathology.
# At necropsy ten joints were harvested per each dog, formalin-fixed, stained and examined microscopically. Joints included the carpus, elbow, shoulder, stifle and tarsus on both the right and left limbs. Further, a section of skin near tick attachment sites was evaluated from each dog. There were two dogs in the Convenia group (25%) with tissues showing changes as described for Lyme disease, compared to seven controls (87.5%) and three (37.5%) to four (50.0%) dogs in the other antibiotic-treated groups (Table 7). […] The Convenia group had the lowest incidence of joint changes with six affected of 80.
# [3] = test system: B. burgdorferi outer surface protein OspF; test: Study B: fluorescent-bead-based multiplex assay, antibodies against OspF; details: for Multiplex Assay OspF: No. Dogs > Positive Threshold (# dogs > 1500): 8 dogs/group
# Method: as §1
# as §2, with “Data were expressed as median fluorescent intensities (MFI), and shown to be specific and sensitive to provide interpretative guidelines regarding infection.” left out
# On Day 75 and Day 89 Convenia was administered to the eight dogs in T04 (8 mg/kg bodyweight; subcutaneous injection). The other treated groups received their respective regimens daily and orally for 30 days from Days 75 to 104. […] Dogs in T01 served as infected, untreated, controls.
# B. burgdorferi [4] = test: Study B: QC6 ELISA in tick-infected dogs; details: 8 dogs/group
# Source text: (§4) Three outer surface proteins (Osp) on B. burgdorferi are important for diagnosis and prevention, and are expressed by the organism in response to its local environment. […] OspF is another surface protein that is generally observed in late-stage disease. The C in […] refers to a 25-amino acid, C6 peptide in the sixth invariable region of an outer membrane lipoprotein (VIsE). Antibody against C6 is highly accurate as a serologic diagnosis of Lyme disease independent of a subject's (e.g., canine) vaccination status. Further, the generation of C6 antibodies implies an active infection with viable spirochetes. Serological methods for detecting B. burgdorfer/Lyme disease were conducted using the IDEXX qualitative SNAP-4Dx ELISA and the Quantitative C6 (Quant C6 or QC6) diagnostic kits, which are enzyme linked immunosorbent assays against the previously described 25-amino-acid C6 peptide. QC6 ELISA data, units/mL, are useful for guidance in initiating and evaluating response to therapy (See Levy S A, O'Connor T P, Hanscom J L, Shields P, et al. Quantitative measurement of a C6 antibody following antibiotic treatment of Borrelia burgdorferi antibody-positive, nonclinical dogs. Clin Vacc Immunol 2008; 15(1):115-119 and Littman M P, Goldstein R E, Labato M A, et al. ACVIM Small Animal Concensus Statement on Lyme Disease in Dogs: Diagnosis, Treatment and Prevention. J Vet Intern Med 2006; 20: 422-434).
# as §1, §2, §3
# B. burgdorferi [5] = test: Study B: SNAP-4Dx ELISA in tick-infected dogs; details: for SNAP-4Dx Positives, Number of Dogs: N = 8/group
# Source text: as §4, §1, §2, §3
# [6] = joints, skin, 8 dogs/group, necropsy
structure (smiles),measurement,setting,value
CC1(C)S[C@@H]2[C@H](NC(=O)[C@H](N)c3ccc(O)cc3)C(=O)N2[C@H]1C(=O)O [amoxicillin],Number of dogs above infected threshold (antibody-OspC),[1],one
same,"Number of Joints with Changes as Described for Lyme disease, Cumulative",B. burgdorferi [2]; 80 total/group,12
same,Number of Joints with Changes as Described for Lyme disease,B. burgdorferi [2]; Carpus L,2
same,Number of Joints with Changes as Described for Lyme disease,B. burgdorferi [2]; Carpus R,2
same,Number of Joints with Changes as Described for Lyme disease,B. burgdorferi [2]; Elbow L,1
same,Number of Joints with Changes as Described for Lyme disease,B. burgdorferi [2]; Elbow R,1
same,Number of Joints with Changes as Described for Lyme disease,B. burgdorferi [2]; Shoulder L,0
same,Number of Joints with Changes as Described for Lyme disease,B. burgdorferi [2]; Shoulder R,1
same,Number of Joints with Changes as Described for Lyme disease,B. burgdorferi [2]; Stifle L,1
same,Number of Joints with Changes as Described for Lyme disease,B. burgdorferi [2]; Stifle R,2
same,Number of Joints with Changes as Described for Lyme disease,B. burgdorferi [2]; Tarsus L,1
same,Number of Joints with Changes as Described for Lyme disease,B. burgdorferi [2]; Tarsus R,1
same,"No Tissue Changes, # Dogs",B. burgdorferi [2]; [6],4
same,"No Tissue Changes, %",B. burgdorferi [2]; [6],50%
same,"Tissue Changes Described for Lyme Disease, # Dogs",B. burgdorferi [2]; [6],4
same,"Tissue Changes Described for Lyme Disease, %",B. burgdorferi [2]; [6],50%
same,Multiplex Assay OspF: MFI Mean,[3]; Day 48 (pre-treatment),1083.75 MFI
same,Multiplex Assay OspF: No. Dogs > Positive Threshold (# dogs > 1500),[3]; Day 48 (pre-treatment),2
same,Multiplex Assay OspF: No. Dogs > Positive Threshold (# dogs > 1500),[3]; Day 111,three and 3
same,Multiplex Assay OspF: MFI Mean,[3]; Day 145,458.13 MFI
same,Multiplex Assay OspF: No. Dogs > Positive Threshold (# dogs > 1500),[3]; Day 145,0
same,Multiplex Assay OspF: MFI Mean,[3]; Day 179,327.88 MFI
same,Multiplex Assay OspF: No. Dogs > Positive Threshold (# dogs > 1500),[3]; Day 179,0
same,Multiplex Assay OspF: MFI Mean,[3]; Day 221,269.63 MFI
same,Multiplex Assay OspF: No. Dogs > Positive Threshold (# dogs > 1500),[3]; Day 221,0
same,Multiplex Assay OspF: MFI Mean,[3]; Day 251,288.63 MFI
same,Multiplex Assay OspF: No. Dogs > Positive Threshold (# dogs > 1500),[3]; Day 251,0
same,Multiplex Assay OspF: MFI Mean,[3]; Day 281,288.88 MFI
same,Multiplex Assay OspF: No. Dogs > Positive Threshold (# dogs > 1500),[3]; Day 281,0
same,Multiplex Assay OspF: MFI Mean,[3]; Day 314,278.25 MFI
same,Multiplex Assay OspF: No. Dogs > Positive Threshold (# dogs > 1500),[3]; Day 314,0
same,Multiplex Assay OspF: MFI Mean,[3]; Day −15 (pre-infection),133.38 MFI
same,Multiplex Assay OspF: No. Dogs > Positive Threshold (# dogs > 1500),[3]; Day −15 (pre-infection),0
same,Antibody-OspF status of dogs,[3]; after Day 111,all dogs negative thereafter
same,"Dogs Sero-converted to B. burgdorferi per QC6 ELISA (≧30 U/mL), (%)",B. burgdorferi [4]; Day 48 (pre-treatment),100.0%
same,"Number of Dogs Sero-converted to B. burgdorferi per QC6 ELISA (≧30 U/mL), No.",B. burgdorferi [4]; Day 48 (pre-treatment),8
same,"Dogs Sero-converted to B. burgdorferi per QC6 ELISA (≧30 U/mL), (%)",B. burgdorferi [4]; Day 111,75.0%
same,"Number of Dogs Sero-converted to B. burgdorferi per QC6 ELISA (≧30 U/mL), No.",B. burgdorferi [4]; Day 111,6
same,"Dogs Sero-converted to B. burgdorferi per QC6 ELISA (≧30 U/mL), (%)",B. burgdorferi [4]; Day 145,0.0%
same,"Number of Dogs Sero-converted to B. burgdorferi per QC6 ELISA (≧30 U/mL), No.",B. burgdorferi [4]; Day 145,0
same,"Dogs Sero-converted to B. burgdorferi per QC6 ELISA (≧30 U/mL), (%)",B. burgdorferi [4]; Day 179,0.0%
same,"Number of Dogs Sero-converted to B. burgdorferi per QC6 ELISA (≧30 U/mL), No.",B. burgdorferi [4]; Day 179,0
same,"Dogs Sero-converted to B. burgdorferi per QC6 ELISA (≧30 U/mL), (%)",B. burgdorferi [4]; Day 221,0.0%
same,"Number of Dogs Sero-converted to B. burgdorferi per QC6 ELISA (≧30 U/mL), No.",B. burgdorferi [4]; Day 221,0
same,"Dogs Sero-converted to B. burgdorferi per QC6 ELISA (≧30 U/mL), (%)",B. burgdorferi [4]; Day 251,0.0%
same,"Number of Dogs Sero-converted to B. burgdorferi per QC6 ELISA (≧30 U/mL), No.",B. burgdorferi [4]; Day 251,0
same,"Dogs Sero-converted to B. burgdorferi per QC6 ELISA (≧30 U/mL), (%)",B. burgdorferi [4]; Day 281,0.0%
same,"Number of Dogs Sero-converted to B. burgdorferi per QC6 ELISA (≧30 U/mL), No.",B. burgdorferi [4]; Day 281,0
same,"Dogs Sero-converted to B. burgdorferi per QC6 ELISA (≧30 U/mL), (%)",B. burgdorferi [4]; Day 314,0.0%
same,"Number of Dogs Sero-converted to B. burgdorferi per QC6 ELISA (≧30 U/mL), No.",B. burgdorferi [4]; Day 314,0
same,"SNAP-4Dx Positives, Number of Dogs",B. burgdorferi [5]; Day 48 (pre-treatment; antibiotics from Day 75),5
same,"SNAP-4Dx Positives, Number of Dogs",B. burgdorferi [5]; Day 111,7
same,"SNAP-4Dx Positives, Number of Dogs",B. burgdorferi [5]; Day 145,3
same,"SNAP-4Dx Positives, Number of Dogs",B. burgdorferi [5]; Day 179,2
same,"SNAP-4Dx Positives, Number of Dogs",B. burgdorferi [5]; Day 221,0
same,"SNAP-4Dx Positives, Number of Dogs",B. burgdorferi [5]; Day 251,0
same,"SNAP-4Dx Positives, Number of Dogs",B. burgdorferi [5]; Day 281,0
same,"SNAP-4Dx Positives, Number of Dogs",B. burgdorferi [5]; Day 315,0
same,"SNAP-4Dx Positives, Number of Dogs",B. burgdorferi [5]; Day −15 (pre-infection),0
same,SNAP-4Dx positive dogs,B. burgdorferi [5]; rest of the study after Day 179,none positive
